Biological target: B-Raf (V600E)-kinase (Homo sapiens, UniProt P15056, V600E)
Experiment: Kinase test B-Raf (V600E)
Type: biochemical
Settings: compound concentration 2 μM; 100% = no inhibition, 0% = total inhibition; read-out: % CTL (residual activity of the enzyme relative to DMSO control)
Procedure: In a dilution series 10 μL of test substance solution are placed in a multiwell plate. The dilution series is selected so that generally a range of concentrations of 2 μM to 0.119 nM or 0.017 nM is covered. If necessary the initial concentration of 2 μM is changed to 50 μM, 10 μM or 0.4 μM or 0.2857 μM and further dilution is carried out accordingly. The final concentration of DMSO is 5%. 10 μL of the B-Raf (V600E)-kinase solution are pipetted in (containing 0.5 ng B-Raf (V600E)-kinase in 20 mM Tris-HCl pH 7.5, 0.1 mM EDTA, 0.1 mM EGTA, 0.286 mM sodium orthovanadate, 10% glycerol, 1 mg/mL bovine serum albumin, 1 mM dithiothreitol) and the mixture is incubated for 1 h at RT under with shaking The kinase reaction is started by the addition of 20 μL ATP solution [final concentration: 250 μM ATP, 30 mM Tris-HCl pH 7.5, 0.02% Brij, 0.2 mM sodium orthovanadate, 10 mM magnesium acetate, 0.1 mM EGTA, phosphatase cocktail (Sigma, # P2850, dilution recommended by the manufacturer), 0.1 mM EGTA] and 10 μL MEK1 solution [containing 50 ng biotinylated MEK1 (prepared from purified MEK1 according to standard procedure, e.g. with EZ-Link Sulpho-NHS-LC-Biotin reagent, Pierce, # 21335) and carried out for 60 min at RT with constant shaking. The reaction is stopped by the addition of 12 μL of a 100 mM EDTA solution and incubation is continued for a further 5 min. 55 μL of the reaction solution are transferred into a streptavidin-coated plate (e.g. Streptawell HighBond, Roche, #11989685001) and shaken gently for 1 h at RT, in order to bind biotinylated MEK1 to the plate. After elimination of the liquid the plate is washed five times with 200 μL of 1×PBS and 100 μL solution of primary antibody plus europium-labelled secondary antibody [Anti Phospho-MEK (Ser217/221), Cell Signaling, # 9121 and Eu-N1 labeled goat-anti-rabbit antibody, Perkin Elmer, #AD0105], the primary antibody is diluted 1:2000 and the secondary antibody is diluted to 0.4-0.5 μg/mL in Delfia Assay Buffer (Perkin Elmer, #1244-111). After 1 h shaking at RT the solution is poured away and washed five times with 200 μL Delfia Wash Buffer (Perkin Elmer, #4010-0010/#1244-114). After the addition of 200 μL Enhancement Solution (Perkin Elmer, #4001-0010/#1244-105) the mixture is shaken for 10 min at RT and then measured in a Wallac Victor using the program “Delfia Time Resolved Fluorescence (Europium)”. IC50 values are obtained from these dosage-activity curves using a software program (GraphPadPrizm).
A value of 100% indicates no inhibition while a value of 0% indicates total inhibition. The % CTL values denote the residual activity of the enzyme after the addition of the inhibitory compound in the solvent DMSO in relation to the enzyme activity in the solvent DMSO without the addition of a compound (control). The values were determined using the B-Raf(V600E)-kinase test described above.

Chain of B-Raf (V600E)-kinase (P15056 whole entry V600E): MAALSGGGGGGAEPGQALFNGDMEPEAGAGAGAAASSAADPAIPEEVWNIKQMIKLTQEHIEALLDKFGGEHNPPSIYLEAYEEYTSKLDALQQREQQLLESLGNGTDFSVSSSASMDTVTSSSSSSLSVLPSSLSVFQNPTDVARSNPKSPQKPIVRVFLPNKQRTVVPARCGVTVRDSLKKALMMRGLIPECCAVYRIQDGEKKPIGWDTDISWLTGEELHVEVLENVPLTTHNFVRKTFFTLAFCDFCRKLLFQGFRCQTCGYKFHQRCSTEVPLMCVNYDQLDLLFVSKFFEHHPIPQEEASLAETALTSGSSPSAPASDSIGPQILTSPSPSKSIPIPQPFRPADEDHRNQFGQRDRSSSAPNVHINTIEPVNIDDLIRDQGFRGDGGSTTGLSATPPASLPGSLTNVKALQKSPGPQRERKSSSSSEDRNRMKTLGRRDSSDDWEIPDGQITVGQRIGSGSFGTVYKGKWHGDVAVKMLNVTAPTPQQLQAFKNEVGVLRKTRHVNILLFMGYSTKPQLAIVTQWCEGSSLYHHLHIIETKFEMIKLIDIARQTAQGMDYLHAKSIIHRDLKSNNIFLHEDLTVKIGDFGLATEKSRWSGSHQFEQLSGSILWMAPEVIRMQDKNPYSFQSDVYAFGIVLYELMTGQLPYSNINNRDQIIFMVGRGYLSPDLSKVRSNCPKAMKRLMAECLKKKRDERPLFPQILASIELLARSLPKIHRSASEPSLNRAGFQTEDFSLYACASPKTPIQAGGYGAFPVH

SMILES | remaining activity at 2 µM [%]
COc1c(CNCC(C)C)cc(NC(=O)c2cnc(C)c(-n3cc(-c4cnn(C)c4C)nn3)c2)cc1C(F)(F)F [Example I-95] | 3.1
Cc1ncc(C(=O)Nc2cc(C(C)(C)C)on2)cc1-n1cc(-c2cncc(N3CCN(CC4CCCCC4)CC3)c2)nn1 [Example I-173] | 2.4
Cc1ncc(C(=O)Nc2cc(C(C)(C)C)on2)cc1-n1cc(-c2cncc(CN3CCC(F)(F)C3)c2)nn1 [Example I-189] | 3.8
Cc1ncc(C(=O)Nc2cc(N(C)CCN(C)C)cc(C(F)(F)F)c2)cc1-n1cc(-c2cnn(C)c2C)nn1 [Example I-60] | 7.2
Cc1ncc(C(=O)Nc2cc(C(C)(C)C)on2)cc1-n1cc(-c2cncc(N3CCC(N4CCOCC4)CC3)c2)nn1 [Example I-136] | 2.5
Cc1ncc(NC(=O)c2cccc(C(C)(C)C#N)c2)cc1-n1cc(-c2cncc(CN(C)C)c2)nn1 [XII-64] | 0.9
Cc1ncc(C(=O)Nc2cc(C(C)(C)C)on2)cc1-n1cc(-c2cncc(NC3CC(N4CCN(C)CC4)C3)c2)nn1 (centres unmarked) [Example I-196] | 1
Cc1ncc(C(=O)Nc2nc(C(C)(C)C)cs2)cc1-n1cc(-c2cncc(N3CCN(C(C)C)CC3)c2)nn1 [Example I-148] | 4
Cc1ncc(C(=O)Nc2cc(CNCC(C)C)c(Cl)c(C(F)(F)F)c2)cc1-n1cc(-c2cnn(C)c2C)nn1 [Example I-55] | 1.2
COc1cncc(-c2cn(-c3cc(C(=O)Nc4cc(C(C)(C)C)on4)cnc3C)nn2)c1 [Example I-27] | 3.3
CC(=O)Nc1ncc(-c2cn(-c3cc(C(=O)Nc4cc(C(F)(F)F)ccn4)cnc3C)nn2)s1 [Example I-14] | 1.4
COc1ccc(C(=O)Nc2cnc(C)c(-n3cc(-c4cnn(C)c4C)nn3)c2)cc1C(F)(F)F [XII-7] | 4.7
Cc1ncc(NC(=O)c2cc(NCCN(C)C)cc(OC(F)(F)F)c2)cc1-n1cc(-c2cnn(C)c2C)nn1 [XII-21] | 1.5
Cc1ncc(NC(=O)c2cccc(C(C)(C)C#N)c2)cc1-n1cc(-c2cncc(N3CCN(C(C)C)CC3)c2)nn1 [XII-50] | 6.8
Cc1ncc(C(=O)Nc2cc(C(C)(C)C)on2)cc1-n1cc(-c2cncc(N3CCN(C(C)C)CC3)c2)nn1 [Example I-140] | 2.2
Cc1ncc(C(=O)Nc2cc(C(C)(C)C)on2)cc1-n1cc(-c2cncc(NC3CCOC3)c2)nn1 (centres unmarked) [Example I-37] | 2.5
COc1c(CN(C)C)cc(C(F)(F)F)cc1NC(=O)c1cnc(C)c(-n2cc(-c3cnn(C)c3C)nn2)c1 [Example I-102] | 4.6
Cc1ncc(C(=O)Nc2cc(C(C)(C)C)on2)cc1-n1cc(-c2cncc(Br)c2)nn1 [Example I-34] | 1.5
Cc1ncc(C(=O)Nc2cc(C(C)(C)C)on2)cc1-n1cc(-c2cncc(N3CCC(N4CCN(C)CC4)CC3)c2)nn1 [Example I-205] | 0.8
Cc1ncc(C(=O)Nc2cc(C(C)(C)C)on2)cc1-n1cc(-c2cncc(N(C)CCN(C)C)c2)nn1 [Example I-141] | 2.1
Cc1ncc(NC(=O)c2cccc(C(C)(C)C#N)c2)cc1-n1cc(-c2cncc(N(C)CCN(C)C)c2)nn1 [XII-53] | 7

The remaining lines, values ahead:

remaining activity at 2 µM [%] | SMILES
2 | COc1ccc(NC(=O)c2cnc(C)c(-n3cc(-c4cncc(N5CCN(C)CC5)c4)nn3)c2)cc1C(F)(F)F [Example I-146]
4.7 | CCNc1cc(NC(=O)c2cnc(C)c(-n3cc(-c4cnn(C)c4C)nn3)c2)cc(C(F)(F)F)c1C [Example I-68]
2.5 | Cc1ncc(C(=O)Nc2cc(C(C)(C)C)on2)cc1-n1cc(-c2cncc(N3CCN(CC4CC4)CC3)c2)nn1 [Example I-137]
5.7 | Cc1ncc(C(=O)Nc2cc(C3=CCNCC3)c(C)c(C(F)(F)F)c2)cc1-n1cc(-c2cnn(C)c2C)nn1 [Example I-126]
13.4 | CCN1CCN(c2cc(NC(=O)c3cnc(C)c(-n4cc(-c5cnn(C)c5C)nn4)c3)cc(C(F)(F)F)c2)CC1 [Example I-59]
2.1 | Cc1ncc(C(=O)Nc2cc(N3CCN(C)CC3)c(C)c(C(F)(F)F)c2)cc1-n1cc(-c2cnn(C)c2C)nn1 [Example I-6]
2.6 | Cc1ncc(C(=O)Nc2cc(C(F)(F)F)cc(N3CCCOCC3)c2C)cc1-n1cc(-c2cnn(C)c2C)nn1 [Example I-118]
2.1 | COc1cncc(-c2cn(-c3cc(C(=O)Nc4cc(CN5CCCC5)c(Cl)c(C(F)(F)F)c4)cnc3C)nn2)c1 [Example I-90]
2.2 | Cc1ncc(C(=O)Nc2cc(CNCC(C)C)c(C)c(C(F)(F)F)c2)cc1-n1cc(-c2cnn(C)c2C)nn1 [Example I-131]
2.5 | COc1cncc(-c2cn(-c3cc(C(=O)Nc4cc(CN5CCCC5)cc(C(F)(F)F)c4)cnc3C)nn2)c1 [Example I-91]
9.8 | Cc1ncc(C(=O)Nc2cc(C(C)(C)C)on2)cc1-n1cc(-c2cncc(N3CCN(CCCO)CC3)c2)nn1 [Example I-168]
2.1 | COc1ccc(C(=O)Nc2cnc(C)c(-n3cc(-c4cncc(N5CCN(C(C)C)CC5)c4)nn3)c2)cc1C(F)(F)F [XII-43]
2.3 | Cc1ncc(C(=O)Nc2cc(C(C)(C)C)on2)cc1-n1cc(-c2cncc(N3CCN(CC(F)F)CC3)c2)nn1 [Example I-181]
2.8 | Cc1ncc(C(=O)Nc2cc(Br)cc(C(F)(F)F)c2)cc1-n1cc(-c2cnn(C)c2C)nn1 [Example I-62]
8.7 | Cc1ncc(C(=O)Nc2cc(N3CCN(C)CC3)cc(C(F)(F)F)c2)cc1-n1cc(-c2cnn(C)c2C)nn1 [Example I-3]
2.5 | COc1cncc(-c2cn(-c3cc(C(=O)Nc4cc(C(F)(F)F)ccn4)cnc3C)nn2)c1 [Example I-29]
6.1 | CCN1CCN(c2cc(NC(=O)c3cnc(C)c(-n4cc(-c5cccnc5)nn4)c3)cc(C(F)(F)F)c2C)CC1 [Example I-46]
0.7 | COc1cncc(-c2cn(-c3cc(NC(=O)c4cc(OC(F)(F)F)cc(N5CCN(C)CC5)c4)cnc3C)nn2)c1 [XII-16]
7.2 | Cc1ncc(-c2cn(-c3cc(NC(=O)c4cc(OC(F)(F)F)cc(N5CCN(C)CC5)c4)cnc3C)nn2)s1 [XII-23]
6.4 | Cc1ncc(C(=O)Nc2cc(N3CCCCC3)c(C)c(C(F)(F)F)c2)cc1-n1cc(-c2cnn(C)c2C)nn1 [Example I-66]
1.9 | Cc1ncc(C(=O)Nc2cc(N3CC[C@H](N(C)C)C3)cc(C(F)(F)F)c2)cc1-n1cc(-c2cnn(C)c2C)nn1 [Example I-77]
9.9 | CCCN1CCN(c2cncc(-c3cn(-c4cc(C(=O)Nc5cc(C(C)(C)C)on5)cnc4C)nn3)c2)CC1 [Example I-164]
1.7 | CCN1CCN(c2cc(NC(=O)c3cnc(C)c(-n4cc(-c5cnc(NC(C)=O)s5)nn4)c3)cc(C(F)(F)F)c2C)CC1 [Example I-48]
3.1 | COc1c(CN2CCCC2)cc(NC(=O)c2cnc(C)c(-n3cc(-c4cnn(C)c4C)nn3)c2)cc1C(F)(F)F [Example I-116]
2.3 | CCN1CCN(c2cc(NC(=O)c3cnc(C)c(-n4cc(-c5cnn(C)c5C)nn4)c3)cc(C(F)(F)F)c2C)CC1 [Example I-57]
1.4 | COc1ccc(NC(=O)c2cnc(C)c(-n3cc(-c4cnc5cnc(C)cn45)nn3)c2)cc1C(F)(F)F [Example I-33]
1.4 | Cc1ncc(C(=O)Nc2cc(C3CCN(C)CC3)cc(C(F)(F)F)c2)cc1-n1cc(-c2cnn(C)c2C)nn1 [Example I-86]
2.1 | CCN1CCN(c2cncc(-c3cn(-c4cc(NC(=O)c5cc(C(F)(F)F)ccn5)cnc4C)nn3)c2)CC1 [XII-38]
1.8 | Cc1ncc(C(=O)Nc2cc(CN3CCCC3)cc(C(F)(F)F)c2)cc1-n1cc(-c2cnn(C)c2C)nn1 [Example I-12]

From patent US8778929B2, “Substituted heteroaryl inhibitors of B-RAF” (Boehringer Ingelheim International GmbH, priority 2008, dated 2014)
